Laboratory results as given in US9624214B2, “Amino-substituted imidazo[1,2-a]pyridinecarboxamides and their use” (BAYER PHARMA AKTIENGESELLSCHAFT, priority 2012, dated 2017).
Structures can show the parent of a compound that is named as a salt.

What follows are compounds tested against T1, recombinant guanylate cyclase reporter cell line (Rattus norvegicus, UniProt P19686+P20595) (assay: B-2. Action on recombinant guanylate cyclase reporter cell line). Conditions: MEC = minimal effective concentration; in some cases mean values from individual determinations.
T1 construct: expressed in transfected cells
T1 sequence (P20595 1-619): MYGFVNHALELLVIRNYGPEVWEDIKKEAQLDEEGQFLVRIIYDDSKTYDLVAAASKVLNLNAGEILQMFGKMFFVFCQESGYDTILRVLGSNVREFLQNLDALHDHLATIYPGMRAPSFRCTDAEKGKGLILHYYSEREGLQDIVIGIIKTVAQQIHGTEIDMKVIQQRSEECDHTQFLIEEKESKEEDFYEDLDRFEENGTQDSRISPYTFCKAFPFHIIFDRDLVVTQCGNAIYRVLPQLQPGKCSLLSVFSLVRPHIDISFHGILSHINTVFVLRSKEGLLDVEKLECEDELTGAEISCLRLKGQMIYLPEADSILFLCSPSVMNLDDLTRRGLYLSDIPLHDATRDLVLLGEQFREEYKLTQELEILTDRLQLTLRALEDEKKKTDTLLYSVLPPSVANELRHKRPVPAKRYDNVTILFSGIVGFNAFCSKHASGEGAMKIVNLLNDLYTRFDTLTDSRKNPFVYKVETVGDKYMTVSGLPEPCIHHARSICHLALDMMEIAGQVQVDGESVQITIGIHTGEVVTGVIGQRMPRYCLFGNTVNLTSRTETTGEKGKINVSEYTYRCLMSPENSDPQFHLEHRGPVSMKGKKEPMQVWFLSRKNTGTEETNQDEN
T1 sequence (P19686 1-690): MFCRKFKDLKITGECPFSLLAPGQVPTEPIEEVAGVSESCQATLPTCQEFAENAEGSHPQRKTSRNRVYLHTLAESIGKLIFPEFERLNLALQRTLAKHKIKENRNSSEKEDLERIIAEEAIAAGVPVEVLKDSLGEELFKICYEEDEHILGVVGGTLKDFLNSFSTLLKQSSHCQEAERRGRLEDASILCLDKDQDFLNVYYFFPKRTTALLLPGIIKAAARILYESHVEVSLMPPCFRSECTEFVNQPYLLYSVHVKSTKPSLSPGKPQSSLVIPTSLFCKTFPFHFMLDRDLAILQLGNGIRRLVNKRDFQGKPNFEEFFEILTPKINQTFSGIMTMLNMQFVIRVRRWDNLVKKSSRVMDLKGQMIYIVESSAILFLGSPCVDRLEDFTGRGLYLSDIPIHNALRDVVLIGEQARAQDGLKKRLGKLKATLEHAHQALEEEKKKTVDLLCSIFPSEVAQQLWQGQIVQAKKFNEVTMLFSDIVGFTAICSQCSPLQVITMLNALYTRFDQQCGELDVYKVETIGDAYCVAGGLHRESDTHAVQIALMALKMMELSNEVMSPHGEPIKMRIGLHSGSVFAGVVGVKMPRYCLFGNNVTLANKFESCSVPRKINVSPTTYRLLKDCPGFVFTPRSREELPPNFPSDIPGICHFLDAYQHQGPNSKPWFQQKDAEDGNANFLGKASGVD
Type: cell-based
How it was run: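 Each compound is applied to a cell line engineered with a reporter for recombinant guanylate cyclase. The minimal effective concentration is then noted, in part as a mean across separate determinations.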
Compound `Cc1nc2c(OCc3c(F)cccc3F)cc(Cl)cn2c1C(=O)NC(C)(C)CN` [Example 24, N-(1-amino-2-methylpropan-2-yl)-6-chloro-8-[(2,6-difluorobenzyl)oxy]-2-methylimidazo[1,2-a]pyridine-3-carboxamide] has an MEC of 0.65 µM.
In the case of `Cc1cc(OCc2c(F)cccc2F)c2nc(C)c(C(=O)NC(C)(C)CN)n2c1` [Example 26, N-(1-amino-2-methylpropan-2-yl)-8-[(2,6-difluorobenzyl)oxy]-2,6-dimethylimidazo [1,2-a]-pyridine-3-carboxamide], the MEC is reported as 0.30 µM.
Work on `Cc1nc2c(OCc3c(F)cccc3F)cccn2c1C(=O)NC1CC2CCCC(C1)N2` (stereo not drawn) [Example 27, N-(9-azabicyclo[3.3.1]non-3-yl)-8-[(2,6-difluorobenzyl)oxy]-2-methylimidazo[1,2-a]-pyridine-3-carboxamide] yielded an MEC of 1.00 µM.
For `Cc1nc2c(OCc3c(F)cccc3F)cc(Cl)cn2c1C(=O)NCCC1(N)CCCCC1` [Example 33, N-[2-(1-Aminocyclohexyl)ethyl]-6-chloro-8-[(2,6-difluorobenzyl)oxy]-2-methylimidazo[1,2-a]-pyridine-3-carboxamide], the MEC was 0.30 µM.
`CC[C@@H](N)CNC(=O)c1c(C)nc2c(OCc3c(F)cccc3F)cc(Cl)cn12` [Example 35, ent-N-[(2R)-2-aminobutyl]-6-chloro-8-[(2,6-difluorobenzyl)oxy]-2-methylimidazo[1,2-a]-pyridine-3-carboxamide] gave an MEC of 1.00 µM.
For `Cc1nc2c(OCc3c(F)cccc3F)cc(Cl)cn2c1C(=O)NCCN` [Example 36, N-(2-aminoethyl)-6-chloro-8-[(2,6-difluorobenzyl)oxy]-2-methylimidazo[1,2-a]-pyridine-3-carboxamide], the MEC was 1.00 µM.
`Cc1nc2c(OCc3c(F)cccc3F)cc(Cl)cn2c1C(=O)NCCCN` [Example 37, N-(3-aminopropyl)-6-chloro-8-[(2,6-difluoro-benzyl)oxy]-2-methylimidazo[1,2-a]pyridine-3-carboxamide] was tested, and the MEC was 1.00 µM.
Work on `Cc1nc2c(OCc3c(F)cccc3F)cccn2c1C(=O)NCC1(N)CC1` [Example 38, N-[(1-aminocyclopropyl)methyl]-8-[(2,6-difluorobenzyl)oxy]-2-methylimidazo[1,2-a]-pyridine-3-carboxamide] yielded an MEC of 0.40 µM.
`Cc1nc2c(OCc3c(F)cccc3F)cc(Cl)cn2c1C(=O)NCC1(N)CC1` [Example 39, N-[(1-aminocyclopropyl)methyl]-6-chloro-8-[(2,6-difluorobenzyl)oxy]-2-methylimidazo[1,2-a]pyridine-3-carboxamide] showed an MEC of 0.10 µM.
`Cc1cc(OCc2c(F)cccc2F)c2nc(C)c(C(=O)NCC3(N)CC3)n2c1` [Example 40, N-[(1-aminocyclopropyl)methyl]-8-[(2,6-difluorobenzyl)oxy]-2,6-dimethylimidazo[1,2-a]-pyridine-3-carboxamide] showed an MEC of 0.10 µM.
For `Cc1nc2c(OCc3c(F)cccc3F)cccn2c1C(=O)NCC1(N)CCCC1` [Example 41, N-[(1-aminocyclopentyl)methyl]-8-[(2,6-difluorobenzyl)oxy]-2-methylimidazo[1,2-a]-pyridine-3-carboxamide], the MEC was 0.30 µM.
With `Cc1nc2c(OCc3c(F)cccc3F)cc(Cl)cn2c1C(=O)NCC1(N)CCCC1` [Example 42, N-[(1-aminocyclopentyl)methyl]-6-chloro-8-[(2,6-difluorobenzyl)oxy]-2-methylimidazo[1,2-a]pyridine-3-carboxamide] the MEC was 1.00 µM.
In the case of `Cc1nc2c(OCC3CCCCC3)cccn2c1C(=O)NC(CN)c1ccc(F)cc1F` (stereo not drawn) [Example 45, ent-N-[2-Amino-1-(2,4-difluorophenyl)ethyl]-8-(cyclohexylmethoxy)-2-methylimidazo[1,2-a]-pyridine-3-carboxamide], the MEC is reported as 1.00 µM.
Compound `Cc1cc(OCc2c(F)cccc2F)c2nc(C)c(C(=O)NC(C)CN)n2c1` (stereo not drawn) [Example 48, ent-N-(1-Aminopropan-2-yl)-8-[(2,6-difluorobenzyl)oxy]-2,6-dimethylimidazo[1,2-a]pyridine-3-carboxamide] has an MEC of 1.00 µM.
Compound `Cc1cc(OCc2c(F)cccc2F)c2nc(C)c(C(=O)NC(CN)c3ccc(F)c(F)c3)n2c1` (stereo not drawn) [Example 51, ent-N-[2-Amino-1-(3,4-difluorophenyl)ethyl]-8-[(2,6-difluorobenzyl)oxy]-2,6-dimethylimidazo-[1,2-a]pyridine-3-carboxamide] has an MEC of 0.20 µM.
Work on `Cc1nc2c(OCc3c(F)cccc3F)cc(F)cn2c1C(=O)NC(CN)c1ccc(F)c(F)c1` (stereo not drawn) [Example 53, ent-N-[2-Amino-(3,4-difluorophenyl)ethyl]-8-[(2,6-difluorobenzyl)oxy]-6-fluoro-2-methylimidazo[1,2-a]pyridine-3-carboxamide] yielded an MEC of 0.30 µM.
`NCC(NC(=O)c1c(C2CC2)nc2c(OCc3c(F)cccc3F)cccn12)c1ccc(F)c(F)c1` (stereo not drawn) [Example 54, ent-N-[2-amino-1-(3,4-difluorophenyl)ethyl]-2-cyclopropyl-8-[(2,6-difluorobenzyl)oxy]-imidazo[1,2-a]pyridine-3-carboxamide] was tested, and the MEC was 1.00 µM.
`NCC(NC(=O)c1cnc2c(OCc3c(F)cccc3F)cccn12)c1ccc(F)c(F)c1` (stereo not drawn) [Example 55, ent-N-[2-amino-1-(3,4-difluorophenyl)ethyl]-8-[(2,6-difluorobenzyl)oxy]imidazo[1,2-a]pyridine-3-carboxamide dihydrochloride] was tested, and the MEC was 2.00 µM.
Work on `Cc1nc2c(OCc3c(F)cccc3F)cccn2c1C(=O)N[C@H]1CCCNC1` [Example 60, 8-[(2,6-difluorobenzyl)oxy]-2-methyl-N-[(3S)-piperidin-3-yl]imidazo[1,2-a]pyridine-3-carboxamide dihydrochloride] yielded an MEC of 0.30 µM.
For `Cc1nc2c(OCc3c(F)cccc3F)cccn2c1C(=O)N[C@H]1CCNC1` [Example 61, 8-[(2,6-Difluorobenzyl)oxy]-2-methyl-N-[(3S)-pyrrolidin-3-yl]imidazo[1,2-a]pyridine-3-carboxamide], the MEC was 3.00 µM.
`CCCC[C@H](CN1CCOCC1)NC(=O)c1c(C)nc2c(OCc3c(F)cccc3F)cccn12` [Example 64, ent-8-[(2,6-Difluorobenzyl)oxy]-2-methyl-N-[(2R)-1-(morpholin-4-yl)hexan-2-yl]imidazo[1,2-a]-pyridine-3-carboxamide] was tested, and the MEC was 0.30 µM.
Compound `CCCC[C@H](CN1CCCC1)NC(=O)c1c(C)nc2c(OCc3c(F)cccc3F)cccn12` [Example 66, ent-8-[(2,6-difluorobenzyl)oxy]-2-methyl-N-[(2R)-1-(pyrrolidin-1-yl)hexan-2-yl]imidazo[1,2-a]-pyridine-3-carboxamide] has an MEC of 1.00 µM.
`CCCC[C@H](CN1CCN(C)CC1)NC(=O)c1c(C)nc2c(OCc3c(F)cccc3F)cccn12` [Example 67, ent-8-[(2,6-difluorobenzyl)oxy]-2-methyl-N-[(2R)-1-(4-methylpiperazin-1-yl)hexan-2-yl]imidazo[1,2-a]pyridine-3-carboxamide] showed an MEC of 0.30 µM.
Compound `CCCC[C@H](CN(C)C)NC(=O)c1c(C)nc2c(OCc3c(F)cccc3F)cccn12` [Example 68, ent-8-[(2,6-difluorobenzyl)oxy]-N-[(2R)-1-(dimethylamino)hexan-2-yl]-2-methylimidazo[1,2-a]pyridine-3-carboxamide] has an MEC of 0.30 µM.
In the case of `CCCC[C@H](CN(CC)CC)NC(=O)c1c(C)nc2c(OCc3c(F)cccc3F)cccn12` [Example 69, ent-N-[(2R)-1-(diethylamino)hexan-2-yl]-8-[(2,6-difluorobenzyl)oxy]-2-methylimidazo[1,2-a]-pyridine-3-carboxamide], the MEC is reported as 1.00 µM.
`CCCC[C@H](CNCCOC)NC(=O)c1c(C)nc2c(OCc3c(F)cccc3F)cccn12` [Example 70, ent-8-[(2,6-difluorobenzyl)oxy]-N-{(2R)-1-[(2-methoxyethyl)amino]hexan-2-yl}-2-methylimidazo[1,2-a]pyridine-3-carboxamide] gave an MEC of 1.00 µM.
`CCN1C2CCCC1CC(NC(=O)c1c(C)nc3c(OCc4c(F)cccc4F)cccn13)C2` (stereo not drawn) [Example 71, 8-[(2,6-Difluorobenzyl)oxy]-N-(9-ethyl-9-azabicyclo[3.3.1]non-3-yl)-2-methylimidazo[1,2-a]-pyridine-3-carboxamide] gave an MEC of 0.30 µM.
